Measurements published in the NIST ThermoML archive (doi:10.1021/je900722m).
Numbers after ± are expanded uncertainties.

Test: xn = mol fraction of the nth substance listed
Conditions: 101 kPa, Liquid

CCC(C)O (configuration not stated) [butan-2-ol] + CCCCO
Conditions | mass density [kg/m3] | viscosity [mPa·s]
303.15 K, x2 = 0.1008 | 798.816 ± 0.47 | 3.157 ± 0.053
303.15 K, x2 = 0.2005 | 799.24 ± 0.46 | 3.08 ± 0.052
303.15 K, x2 = 0.3002 | 799.646 ± 0.46 | 3.027 ± 0.051
303.15 K, x2 = 0.4006 | 800.045 ± 0.45 | 2.987 ± 0.05
303.15 K, x2 = 0.5004 | 800.435 ± 0.45 | 2.956 ± 0.05
303.15 K, x2 = 0.6005 | 800.827 ± 0.45 | 2.932 ± 0.049
303.15 K, x2 = 0.6999 | 801.204 ± 0.44 | 2.912 ± 0.049
303.15 K, x2 = 0.7989 | 801.568 ± 0.44 | 2.894 ± 0.049
303.15 K, x2 = 0.8988 | 801.909 ± 0.44 | 2.875 ± 0.048
308.15 K, x2 = 0.1008 | 794.588 ± 0.47 | 2.679 ± 0.046
308.15 K, x2 = 0.2005 | 795.059 ± 0.47 | 2.65 ± 0.045
308.15 K, x2 = 0.3002 | 795.516 ± 0.46 | 2.626 ± 0.045
308.15 K, x2 = 0.4006 | 795.957 ± 0.46 | 2.609 ± 0.044
308.15 K, x2 = 0.5004 | 796.396 ± 0.45 | 2.595 ± 0.044
308.15 K, x2 = 0.6005 | 796.828 ± 0.45 | 2.583 ± 0.044
308.15 K, x2 = 0.6999 | 797.242 ± 0.45 | 2.57 ± 0.044
308.15 K, x2 = 0.7989 | 797.635 ± 0.45 | 2.557 ± 0.043
308.15 K, x2 = 0.8988 | 798.014 ± 0.44 | 2.545 ± 0.043
313.15 K, x2 = 0.1008 | 790.266 ± 0.48 | 2.312 ± 0.04
313.15 K, x2 = 0.2005 | 790.801 ± 0.47 | 2.299 ± 0.04
313.15 K, x2 = 0.3002 | 791.313 ± 0.47 | 2.288 ± 0.039
313.15 K, x2 = 0.4006 | 791.795 ± 0.47 | 2.283 ± 0.039
313.15 K, x2 = 0.5004 | 792.279 ± 0.46 | 2.278 ± 0.039
313.15 K, x2 = 0.6005 | 792.762 ± 0.46 | 2.275 ± 0.039
313.15 K, x2 = 0.6999 | 793.224 ± 0.45 | 2.272 ± 0.039
313.15 K, x2 = 0.7989 | 793.655 ± 0.45 | 2.268 ± 0.039
313.15 K, x2 = 0.8988 | 794.069 ± 0.45 | 2.264 ± 0.039
318.15 K, x2 = 0.1008 | 785.851 ± 0.49 | 1.982 ± 0.035
318.15 K, x2 = 0.2005 | 786.455 ± 0.48 | 1.981 ± 0.034
318.15 K, x2 = 0.3002 | 787.036 ± 0.47 | 1.981 ± 0.034
318.15 K, x2 = 0.4006 | 787.575 ± 0.47 | 1.982 ± 0.034
318.15 K, x2 = 0.5004 | 788.113 ± 0.47 | 1.986 ± 0.034
318.15 K, x2 = 0.6005 | 788.64 ± 0.46 | 1.992 ± 0.034
318.15 K, x2 = 0.6999 | 789.157 ± 0.46 | 1.999 ± 0.035
318.15 K, x2 = 0.7989 | 789.625 ± 0.46 | 2.007 ± 0.035
318.15 K, x2 = 0.8988 | 790.08 ± 0.46 | 2.013 ± 0.035
323.15 K, x2 = 0.1008 | 781.329 ± 0.49 | 1.723 ± 0.03
323.15 K, x2 = 0.2005 | 782.01 ± 0.49 | 1.737 ± 0.031
323.15 K, x2 = 0.3002 | 782.667 ± 0.48 | 1.75 ± 0.031
323.15 K, x2 = 0.4006 | 783.274 ± 0.48 | 1.763 ± 0.031
323.15 K, x2 = 0.5004 | 783.873 ± 0.47 | 1.773 ± 0.031
323.15 K, x2 = 0.6005 | 784.456 ± 0.47 | 1.782 ± 0.031
323.15 K, x2 = 0.6999 | 785.021 ± 0.47 | 1.79 ± 0.031
323.15 K, x2 = 0.7989 | 785.535 ± 0.46 | 1.795 ± 0.031
323.15 K, x2 = 0.8988 | 786.04 ± 0.46 | 1.798 ± 0.031
328.15 K, x2 = 0.1008 | 776.706 ± 0.5 | 1.506 ± 0.027
328.15 K, x2 = 0.2005 | 777.468 ± 0.49 | 1.525 ± 0.027
328.15 K, x2 = 0.3002 | 778.208 ± 0.49 | 1.543 ± 0.027
328.15 K, x2 = 0.4006 | 778.887 ± 0.48 | 1.56 ± 0.028
328.15 K, x2 = 0.5004 | 779.553 ± 0.48 | 1.576 ± 0.028
328.15 K, x2 = 0.6005 | 780.198 ± 0.48 | 1.59 ± 0.028
328.15 K, x2 = 0.6999 | 780.817 ± 0.47 | 1.602 ± 0.028
328.15 K, x2 = 0.7989 | 781.386 ± 0.47 | 1.612 ± 0.028
328.15 K, x2 = 0.8988 | 781.936 ± 0.47 | 1.621 ± 0.028
333.15 K, x2 = 0.1008 | 771.968 ± 0.51 | 1.327 ± 0.024
333.15 K, x2 = 0.2005 | 772.822 ± 0.5 | 1.349 ± 0.024
333.15 K, x2 = 0.3002 | 773.649 ± 0.5 | 1.369 ± 0.025
333.15 K, x2 = 0.4006 | 774.407 ± 0.49 | 1.387 ± 0.025
333.15 K, x2 = 0.5004 | 775.144 ± 0.49 | 1.405 ± 0.025
333.15 K, x2 = 0.6005 | 775.861 ± 0.48 | 1.421 ± 0.025
333.15 K, x2 = 0.6999 | 776.534 ± 0.48 | 1.434 ± 0.026
333.15 K, x2 = 0.7989 | 777.165 ± 0.48 | 1.447 ± 0.026
333.15 K, x2 = 0.8988 | 777.765 ± 0.47 | 1.457 ± 0.026
338.15 K, x2 = 0.1008 | 767.116 ± 0.52 | 1.178 ± 0.022
338.15 K, x2 = 0.2005 | 768.057 ± 0.51 | 1.201 ± 0.022
338.15 K, x2 = 0.3002 | 768.985 ± 0.5 | 1.224 ± 0.022
338.15 K, x2 = 0.4006 | 769.83 ± 0.5 | 1.242 ± 0.023
338.15 K, x2 = 0.5004 | 770.644 ± 0.49 | 1.258 ± 0.023
338.15 K, x2 = 0.6005 | 771.436 ± 0.49 | 1.275 ± 0.023
338.15 K, x2 = 0.6999 | 772.174 ± 0.49 | 1.29 ± 0.023
338.15 K, x2 = 0.7989 | 772.85 ± 0.48 | 1.302 ± 0.023
338.15 K, x2 = 0.8988 | 773.53 ± 0.48 | 1.315 ± 0.024
343.15 K, x2 = 0.1008 | 762.161 ± 0.52 | 1.055 ± 0.02
343.15 K, x2 = 0.2005 | 763.194 ± 0.52 | 1.08 ± 0.02
343.15 K, x2 = 0.3002 | 764.213 ± 0.51 | 1.102 ± 0.02
343.15 K, x2 = 0.4006 | 765.15 ± 0.51 | 1.121 ± 0.021
343.15 K, x2 = 0.5004 | 766.048 ± 0.5 | 1.138 ± 0.021
343.15 K, x2 = 0.6005 | 766.918 ± 0.5 | 1.155 ± 0.021
343.15 K, x2 = 0.6999 | 767.729 ± 0.49 | 1.171 ± 0.021
343.15 K, x2 = 0.7989 | 768.484 ± 0.49 | 1.184 ± 0.021
343.15 K, x2 = 0.8988 | 769.214 ± 0.49 | 1.197 ± 0.022
